Entries after “also recorded” stand apart in the source; their conditions may differ. Like-named read-outs stand apart in the source and are kept apart here.
Assays:
[1] = tested on: avian influenza virus A/FPV/Bratislava/79 (H7N7); type: cell-based; details: for virus titers: 18 hrs; for IV titers: 2 μM tamiflu vs Hepes, in absence or presence of S. aureus 6850
[2] = tested on: Staphylococcus aureus 6850; test: mouse co-infection model, bacterial titers in lung homogenate; type: in vivo, Balb/C mice; details: S. aureus super-infection day 3, lungs day 4
Experimental: (§1) FIG. 17: Administration of U0126 leads to reduced bacterial titers in vivo independent of viral titers. 12 weeks old Balb/C mice were infected with 50 PFU of the influenza virus strain A/Puerto Rico/8/34 (PR8, H1N1) on day 0 (anesthesized with Isoflurane). Starting on day 1 mice were treated daily with i.p. injection of 30 mg/kg/day U0126 or solvent control (10% DMSO, 30% Cremophor EL, 60% PBS). On day 3 mice were infected with 5*10^7 CFU of Staphylococcus aureus 6850 under anesthesia with Isoflurane and directly treated with U0126 or solvent control. On day 4 lungs were removed and homogenized in PBS (0.1 g per 1000 μl PBS). For calculation of bacterial titers serial dilutions of the homogenate were plated on BHI agar. For determination of viral titers a standard plaque assay was performed. Statistical analysis was done using Mann-Whitney U Test (* p<0.05).
(§2) 8 weeks old Balb/C mice (5 per group) were infected with 50 PFU of influenza virus strain A/Puerto Rico/8/34 (PR8, H1N1) on day 0 (anesthesized with Isoflurane). 6 hrs post viral infection mice were treated with oral administration of 10 mg/kg/day Cobimetinib or solvent control (10% DMSO, 5% Tween 20, 85% PBS). Treatment was then performed daily. On day 3 mice were infected with 5*10^7 CFU of Staphylococcus aureus 6850 under anesthesia with Isoflurane and 6 hrs later treated with Cobimetinib or solvent control. […]

[3] = tested on: influenza virus strain A/Puerto Rico/8/34 (PR8, H1N1); test: mouse co-infection model, viral titers in lung homogenate (plaque assay); type: in vivo, Balb/C mice; details: lungs day 4
Experimental: as §1, §2

[4] = shown recently; cited from earlier work
S. aureus 6850 [5] = type: cell-based, Staphylococcus aureus
[6] = tested on: influenza virus A/Puerto Rico/8/34 (H1N1); type: cell-based
S. aureus 6850 [7] = type: cell-based, Staphylococcus aureus; remark: listed apart in the source
[8] = tested on: Human lung epithelial cells (A549); type: cell-based
CCL3 = details: 50 μM U0126; H3N2 (MOI=5) with or without S. aureus 6850 (MOI=50); 8 hrs; preliminary results
CCL5 = details: 50 μM U0126; H3N2 (MOI=5) with or without S. aureus 6850 (MOI=50); 8 hrs; preliminary results
ERK-1/2 phosphorylation = details: 50 μM U0126; western blot, 8 hrs
S. aureus 6850 [9] = test: bacterial internalisation (uptake) into A549 cells after 4 h preincubation; details: 2.5 ng/ml TNF-alpha, stimulation 4 hours prior bacterial infection; 120 min
S. aureus USA300 = test: as above; details: 2.5 ng/ml TNF-alpha, stimulation 4 hours prior bacterial infection; MOI=5; 120 min
[10] = […], U0126 50 μM, SB202190 10 μM or LG-ASA 5 mM vs solvent control
[11] = […], U0126 50 μM, SB202190 10 μM or LG-ASA 5 mM vs solvent control, listed as SB02190

## O=C(NOCC1CC1)c1ccc(F)c(F)c1Nc1ccc(I)cc1Cl [CI-1040, 2-(2-chloro-4-iodophenylamino)-N-(cyclopropylmethoxy)-3,4-difluorobenzamide]
[1]; 10 μM CI-1040 vs solvent, singular and co-infection with S. aureus 6850 (MOI=0.1), MOI=0.01
  virus titers: reduction; also recorded: reduces

## O=C(c1ccc(F)c(F)c1Nc1ccc(I)cc1F)N1CC(O)([C@@H]2CCCCN2)C1 [Cobimetinib, [3,4-difluoro-2-[(2-fluoro-4-iodophenyl)amino]phenyl] [3-hydroxy-3-[(2S)-2-piperidinyl]-1-azetidinyl]methanone]
[2]; Cobimetinib 10 mg/kg/day oral, daily
  bacterial titers in vivo (lung): slight but clearly detectable reduction; also recorded: reduces
[3]; Cobimetinib 10 mg/kg/day oral, daily from 6 hrs post viral infection
  viral titers in vivo (lung): slight but clearly detectable reduction; also recorded: reduces
[4]
  maximal tolerated dose: 30 mg/kg/day

## CCOC(=O)C1=C[C@@H](OC(CC)CC)[C@H](NC(C)=O)[C@@H](N)C1 [Oseltamivir]
[1]; MOI=0.001
  IV titers: significantly reduced
[1]; MOI=0.001, listed as tamiflu
  IV titers: reduces
S. aureus 6850 [5]
  intracellular bacterial amounts (S. aureus load): rather increased; also recorded: enhances

## Oc1ccc(-c2nc(-c3ccncc3)c(-c3ccc(F)cc3)[nH]2)cc1 [SB202190]
[6]; [10]
  IV replication (IV titers): reduces
  viral titers in presence of S. aureus: reduces
[6]; [11]
  IV replication (IV titers): inhibitory effects
  viral titers in presence of S. aureus: reduced

## N#CC(=C(/N)Sc1ccccc1N)/C(C#N)=C(\N)Sc1ccccc1N [U0126]
[6]
  IV replication (IV titers): inhibitory effects; also recorded: reduces
  viral titers in presence of S. aureus: reduces
[1]; 50 μM U0126 vs solvent, co-infection with S. aureus 6850 (MOI=0.1)
  virus titers: reduced
[1]; 50 μM U0126 vs solvent, singular infection, MOI=0.01
  virus titers: significant reduction
[1]; co-infection with S. aureus 6850 (MOI=0.5), virus MOI=0.001, 50 μM U0126 vs DMSO
  viral titers in presence of S. aureus: reduces
[1]; singular infection, MOI=0.001, 50 μM U0126 vs DMSO
  IV replication (IV titers): inhibitory effects; also recorded: reduces
S. aureus 6850 [5]
  bacterial titers of internalized S. aureus 6850: only slightly decreased
  intracellular amounts of S. aureus (S. aureus load): reduces
S. aureus 6850 [7]
  bacterial growth: inhibited; also recorded: reduced
  bacterial titers without living cells: reduced
[8]
  cell damage of cell layer (cell morphology): much less damaged
[2]; U0126 30 mg/kg/day i.p. daily from day 1, 30 mg/kg/day
  bacterial titers in vivo (lung): significantly reduced
[3]; U0126 30 mg/kg/day i.p. daily from day 1
  virus titers in vivo (lung): fail of reduced virus titers
CCL3
  IAV-induced CCL3 mRNA synthesis: reduced
CCL5
  IAV-induced CCL5 mRNA synthesis: further reduced
ERK-1/2 phosphorylation
  effect on MEK/ERK signalling (ERK1/2 phosphorylation): inhibitory effect
Viral protein (PB1)
  viral protein synthesis (PB1): reduction

## TNF-α
S. aureus 6850 [9]
  bacterial uptake upon NFκB activation: enhanced uptake
S. aureus USA300
  bacterial uptake upon NFκB activation: enhanced uptake

— US11135263B2 (priority 2014, dated 2021)
